Key:
[1] = target: D(1A) dopamine receptor (Homo sapiens, UniProt P21728)
[2] = target: T1, Muscarinic acetylcholine receptor M1 (Homo sapiens, UniProt P11229); type: functional, cell-based
T1 sequence (P11229 whole entry): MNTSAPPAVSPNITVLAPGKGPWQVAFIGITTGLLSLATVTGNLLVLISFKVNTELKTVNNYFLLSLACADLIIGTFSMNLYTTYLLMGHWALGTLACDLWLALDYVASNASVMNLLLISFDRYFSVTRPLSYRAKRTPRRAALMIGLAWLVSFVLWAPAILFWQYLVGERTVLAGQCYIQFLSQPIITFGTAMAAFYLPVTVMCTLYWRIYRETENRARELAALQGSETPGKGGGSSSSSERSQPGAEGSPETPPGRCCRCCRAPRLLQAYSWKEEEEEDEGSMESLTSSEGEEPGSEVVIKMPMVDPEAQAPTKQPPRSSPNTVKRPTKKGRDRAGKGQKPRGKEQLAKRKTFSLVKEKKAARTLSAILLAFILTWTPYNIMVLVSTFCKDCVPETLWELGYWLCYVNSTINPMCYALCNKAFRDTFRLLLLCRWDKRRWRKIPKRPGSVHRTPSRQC

[3] = target: Adenosine receptor A2a (Homo sapiens, UniProt P29274)
Sequence of Adenosine receptor A2a (P29274 whole entry): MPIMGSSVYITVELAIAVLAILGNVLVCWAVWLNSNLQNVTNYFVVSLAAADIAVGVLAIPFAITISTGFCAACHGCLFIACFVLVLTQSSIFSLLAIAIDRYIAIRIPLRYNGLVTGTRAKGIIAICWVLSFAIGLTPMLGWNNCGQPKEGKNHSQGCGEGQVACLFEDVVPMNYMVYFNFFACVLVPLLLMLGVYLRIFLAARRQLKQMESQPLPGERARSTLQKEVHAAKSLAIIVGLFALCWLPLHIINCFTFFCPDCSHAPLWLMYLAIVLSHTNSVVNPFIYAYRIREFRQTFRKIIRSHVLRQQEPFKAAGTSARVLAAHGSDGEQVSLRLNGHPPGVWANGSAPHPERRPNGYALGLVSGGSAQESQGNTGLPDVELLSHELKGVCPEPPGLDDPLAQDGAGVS

[4] = target: Voltage-dependent L-type calcium channel subunit alpha-1C (Rattus norvegicus, UniProt P22002); type: functional
Sequence of Voltage-dependent L-type calcium channel subunit alpha-1C (P22002 whole entry): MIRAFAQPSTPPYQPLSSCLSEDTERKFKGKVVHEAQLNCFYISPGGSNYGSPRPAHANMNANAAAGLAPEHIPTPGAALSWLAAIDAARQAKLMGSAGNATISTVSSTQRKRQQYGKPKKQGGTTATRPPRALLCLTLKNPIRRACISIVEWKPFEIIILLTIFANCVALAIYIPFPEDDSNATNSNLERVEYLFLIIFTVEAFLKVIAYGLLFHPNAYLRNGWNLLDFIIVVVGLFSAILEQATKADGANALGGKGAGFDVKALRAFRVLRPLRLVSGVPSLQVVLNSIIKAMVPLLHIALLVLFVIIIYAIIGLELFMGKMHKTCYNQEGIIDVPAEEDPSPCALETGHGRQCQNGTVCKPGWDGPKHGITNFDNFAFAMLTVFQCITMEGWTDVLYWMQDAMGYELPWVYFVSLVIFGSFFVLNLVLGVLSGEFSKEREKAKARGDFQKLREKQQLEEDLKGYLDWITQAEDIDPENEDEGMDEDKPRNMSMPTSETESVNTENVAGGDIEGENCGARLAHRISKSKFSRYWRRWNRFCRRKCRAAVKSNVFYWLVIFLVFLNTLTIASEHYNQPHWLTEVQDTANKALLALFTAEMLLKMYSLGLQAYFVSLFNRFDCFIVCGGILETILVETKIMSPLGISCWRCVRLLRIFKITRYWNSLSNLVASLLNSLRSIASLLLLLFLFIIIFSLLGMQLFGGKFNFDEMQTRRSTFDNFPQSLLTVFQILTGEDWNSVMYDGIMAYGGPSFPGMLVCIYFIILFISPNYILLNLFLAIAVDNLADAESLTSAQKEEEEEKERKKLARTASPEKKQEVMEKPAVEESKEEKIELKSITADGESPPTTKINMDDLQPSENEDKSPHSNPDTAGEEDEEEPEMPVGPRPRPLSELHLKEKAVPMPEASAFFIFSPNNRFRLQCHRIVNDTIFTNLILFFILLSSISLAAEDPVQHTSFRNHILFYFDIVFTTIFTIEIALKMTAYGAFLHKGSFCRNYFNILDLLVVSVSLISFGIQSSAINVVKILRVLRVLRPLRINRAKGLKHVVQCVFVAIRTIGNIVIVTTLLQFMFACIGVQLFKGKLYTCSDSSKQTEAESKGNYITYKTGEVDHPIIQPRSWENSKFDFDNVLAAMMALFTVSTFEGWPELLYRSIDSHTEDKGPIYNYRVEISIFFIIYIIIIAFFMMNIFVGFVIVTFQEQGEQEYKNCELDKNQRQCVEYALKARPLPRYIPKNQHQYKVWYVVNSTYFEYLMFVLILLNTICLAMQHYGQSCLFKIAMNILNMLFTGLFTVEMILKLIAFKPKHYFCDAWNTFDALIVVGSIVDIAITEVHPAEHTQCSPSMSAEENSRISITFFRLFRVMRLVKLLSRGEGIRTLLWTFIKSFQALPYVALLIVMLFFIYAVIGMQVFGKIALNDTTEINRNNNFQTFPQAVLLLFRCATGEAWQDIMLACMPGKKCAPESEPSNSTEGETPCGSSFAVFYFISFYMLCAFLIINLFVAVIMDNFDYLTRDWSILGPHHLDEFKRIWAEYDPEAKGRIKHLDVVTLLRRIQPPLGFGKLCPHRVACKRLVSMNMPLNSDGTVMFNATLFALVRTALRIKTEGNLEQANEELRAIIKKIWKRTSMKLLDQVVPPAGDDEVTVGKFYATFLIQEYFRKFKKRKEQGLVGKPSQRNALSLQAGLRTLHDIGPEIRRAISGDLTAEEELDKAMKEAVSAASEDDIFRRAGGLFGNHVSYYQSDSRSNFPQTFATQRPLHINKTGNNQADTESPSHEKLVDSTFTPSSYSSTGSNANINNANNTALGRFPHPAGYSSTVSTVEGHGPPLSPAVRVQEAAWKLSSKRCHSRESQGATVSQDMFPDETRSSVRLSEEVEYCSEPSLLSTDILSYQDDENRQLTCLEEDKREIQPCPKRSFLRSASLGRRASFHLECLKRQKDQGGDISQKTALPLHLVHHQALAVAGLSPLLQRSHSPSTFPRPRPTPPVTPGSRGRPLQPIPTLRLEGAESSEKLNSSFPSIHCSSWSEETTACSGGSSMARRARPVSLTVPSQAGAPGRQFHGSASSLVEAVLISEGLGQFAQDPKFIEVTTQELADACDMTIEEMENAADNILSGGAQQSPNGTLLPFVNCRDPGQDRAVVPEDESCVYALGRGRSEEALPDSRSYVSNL

[5] = target: Kappa-type opioid receptor (Homo sapiens, UniProt P41145)
Sequence of Kappa-type opioid receptor (P41145 whole entry): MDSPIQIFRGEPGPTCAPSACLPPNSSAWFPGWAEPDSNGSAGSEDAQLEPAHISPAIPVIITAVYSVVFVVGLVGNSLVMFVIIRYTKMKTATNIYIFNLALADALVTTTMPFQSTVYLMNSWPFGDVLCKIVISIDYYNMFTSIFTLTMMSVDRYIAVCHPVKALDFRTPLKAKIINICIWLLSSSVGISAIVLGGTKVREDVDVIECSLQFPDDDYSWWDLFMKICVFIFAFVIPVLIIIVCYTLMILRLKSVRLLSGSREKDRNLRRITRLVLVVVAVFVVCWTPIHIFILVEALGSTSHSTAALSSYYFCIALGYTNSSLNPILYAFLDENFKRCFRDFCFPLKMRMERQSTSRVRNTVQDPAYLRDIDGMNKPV

[6] = target: 5-hydroxytryptamine receptor 2B (Homo sapiens, UniProt P41595); type: functional, cell-based
Sequence of 5-hydroxytryptamine receptor 2B (P41595 whole entry): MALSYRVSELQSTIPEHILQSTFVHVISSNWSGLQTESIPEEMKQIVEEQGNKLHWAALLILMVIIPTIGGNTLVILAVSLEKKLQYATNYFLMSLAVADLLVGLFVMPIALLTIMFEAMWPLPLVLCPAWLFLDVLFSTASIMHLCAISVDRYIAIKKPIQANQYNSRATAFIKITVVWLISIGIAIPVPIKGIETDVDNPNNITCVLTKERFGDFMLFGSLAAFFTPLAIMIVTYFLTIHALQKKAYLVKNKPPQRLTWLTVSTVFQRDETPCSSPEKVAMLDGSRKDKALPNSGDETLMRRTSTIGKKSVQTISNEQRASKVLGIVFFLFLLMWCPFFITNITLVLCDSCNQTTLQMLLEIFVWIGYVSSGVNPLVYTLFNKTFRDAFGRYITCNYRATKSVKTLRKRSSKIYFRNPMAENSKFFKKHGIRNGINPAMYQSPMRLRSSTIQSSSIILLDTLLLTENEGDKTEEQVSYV

[7] = target: T2, Progesterone receptor (Homo sapiens, UniProt P06401); type: functional
T2 sequence (P06401 whole entry): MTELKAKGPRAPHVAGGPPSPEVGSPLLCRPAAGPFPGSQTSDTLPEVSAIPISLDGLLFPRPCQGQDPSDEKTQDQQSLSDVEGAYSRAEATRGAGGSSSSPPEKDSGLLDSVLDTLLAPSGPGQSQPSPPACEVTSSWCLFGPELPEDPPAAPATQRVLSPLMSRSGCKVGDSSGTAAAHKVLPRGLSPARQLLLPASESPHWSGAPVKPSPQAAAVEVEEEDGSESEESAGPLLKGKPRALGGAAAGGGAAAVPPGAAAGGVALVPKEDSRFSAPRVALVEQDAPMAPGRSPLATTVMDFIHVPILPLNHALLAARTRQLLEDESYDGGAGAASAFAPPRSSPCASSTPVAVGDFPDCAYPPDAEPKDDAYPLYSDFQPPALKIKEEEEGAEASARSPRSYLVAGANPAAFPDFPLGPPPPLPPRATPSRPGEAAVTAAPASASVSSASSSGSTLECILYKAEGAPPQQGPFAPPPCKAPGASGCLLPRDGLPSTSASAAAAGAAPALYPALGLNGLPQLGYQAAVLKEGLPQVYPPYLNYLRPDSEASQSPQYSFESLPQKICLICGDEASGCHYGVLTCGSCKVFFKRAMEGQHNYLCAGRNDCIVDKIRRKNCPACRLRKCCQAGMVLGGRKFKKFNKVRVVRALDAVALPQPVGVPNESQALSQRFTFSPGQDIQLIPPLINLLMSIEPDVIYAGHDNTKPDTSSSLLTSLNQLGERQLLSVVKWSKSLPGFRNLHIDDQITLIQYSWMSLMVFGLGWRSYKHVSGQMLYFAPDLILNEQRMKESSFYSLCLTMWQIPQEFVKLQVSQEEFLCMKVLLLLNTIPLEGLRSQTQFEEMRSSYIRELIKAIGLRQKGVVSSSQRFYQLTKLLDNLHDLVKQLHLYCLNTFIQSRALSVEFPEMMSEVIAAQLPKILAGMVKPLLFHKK

[8] = target: T3, Alpha-1A adrenergic receptor (Homo sapiens, UniProt P35348); type: functional, cell-based
T3 sequence (P35348 whole entry): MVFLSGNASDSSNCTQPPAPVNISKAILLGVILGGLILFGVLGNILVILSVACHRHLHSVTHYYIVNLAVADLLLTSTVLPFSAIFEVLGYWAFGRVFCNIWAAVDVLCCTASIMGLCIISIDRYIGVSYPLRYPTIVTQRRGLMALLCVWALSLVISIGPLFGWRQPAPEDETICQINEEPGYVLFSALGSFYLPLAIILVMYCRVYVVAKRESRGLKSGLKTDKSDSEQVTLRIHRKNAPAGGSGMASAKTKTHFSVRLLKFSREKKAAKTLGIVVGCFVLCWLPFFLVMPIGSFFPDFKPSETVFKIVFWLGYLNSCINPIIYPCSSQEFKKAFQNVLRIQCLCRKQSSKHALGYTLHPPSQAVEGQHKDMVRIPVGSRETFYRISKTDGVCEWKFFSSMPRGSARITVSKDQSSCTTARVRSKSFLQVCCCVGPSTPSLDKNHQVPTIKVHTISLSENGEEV
Also: assay procedure not described here.

Sequence of D(1A) dopamine receptor (P21728 whole entry): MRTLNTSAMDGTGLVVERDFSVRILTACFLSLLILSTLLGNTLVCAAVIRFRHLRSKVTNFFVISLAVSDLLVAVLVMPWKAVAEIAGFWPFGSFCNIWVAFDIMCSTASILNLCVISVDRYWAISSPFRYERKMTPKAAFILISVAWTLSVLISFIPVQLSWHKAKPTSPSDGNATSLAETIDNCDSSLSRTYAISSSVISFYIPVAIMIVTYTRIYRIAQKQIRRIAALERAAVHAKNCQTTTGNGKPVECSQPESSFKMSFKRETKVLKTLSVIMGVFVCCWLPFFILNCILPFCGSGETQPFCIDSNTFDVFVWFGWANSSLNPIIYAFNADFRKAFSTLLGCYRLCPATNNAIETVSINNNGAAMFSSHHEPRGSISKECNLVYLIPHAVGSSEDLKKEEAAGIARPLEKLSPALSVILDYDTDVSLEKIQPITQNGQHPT

SMILES	AC50 [1]	AC50 [2]	further results
Cc1cc2c(cc1S(N)(=O)=O)S(=O)(=O)CCC2	> 30 µM	> 30 µM	
C[C@H](N[C@@H](CCc1ccccc1)C(=O)O)C(=O)N1Cc2ccccc2C[C@H]1C(=O)O	> 30 µM	> 30 µM	
O=C(O)[C@@H]1C[C@@H](O)CN1	> 30 µM	> 30 µM	
CC1(C)S[C@@H]2[C@H](/N=C/N3CCCCCC3)C(=O)N2[C@H]1C(=O)O [AMDINOCILLIN]	> 30 µM	> 30 µM	
CC(=O)[C@]1(N)Cc2c(O)c3c(c(O)c2[C@@H](O[C@H]2C[C@H](O)[C@H](O)CO2)C1)C(=O)c1ccccc1C3=O [AMRUBICIN]	> 30 µM	> 3 µM	
NC(=O)[C@@H]1CC[C@@H]2CN1C(=O)N2OS(=O)(=O)O [AVIBACTAM]	> 30 µM	> 30 µM	
O=C(/C=C/c1cccc(S(=O)(=O)Nc2ccccc2)c1)NO [BELINOSTAT]	> 30 µM		AC50 [3]: > 30 µM; AC50 [4]: > 10 µM; AC50 [5]: > 10 µM
CC(O)(CS(=O)(=O)c1ccc(F)cc1)C(=O)Nc1ccc(C#N)c(C(F)(F)F)c1 (stereo not given) [BICALUTAMIDE]	> 30 µM		AC50 [3]: > 30 µM; AC50 [4]: > 10 µM; AC50 [6]: > 10 µM; AC50 [5]: > 10 µM; AC50 [7]: > 30 µM; AC50 [8]: > 30 µM
CC(C)(C)NC(=O)N[C@H](C(=O)N1C[C@H]2[C@@H]([C@H]1C(=O)NC(CC1CCC1)C(=O)C(N)=O)C2(C)C)C(C)(C)C (stereo not given in full) [BOCEPREVIR]	> 30 µM	> 30 µM	
NC[C@H]1CC[C@H](C(=O)Oc2ccc(CCC(=O)O)cc2)CC1 [CETRAXATE]	> 30 µM		AC50 [5]: > 30 µM; AC50 [8]: > 30 µM
C=C1CC[C@H](O)C/C1=C/C=C1\CCC[C@]2(C)[C@@H]([C@H](C)CCCC(C)C)CC[C@@H]12 [CHOLECALCIFEROL]	> 30 µM		
C[C@H](CCC(=O)O)[C@H]1CC[C@H]2[C@@H]3[C@H](O)C[C@@H]4C[C@H](O)CC[C@]4(C)[C@H]3C[C@H](O)[C@]12C [CHOLIC ACID]	> 30 µM		
Cc1ncc2c(c1O)COC2c1ccc(Cl)cc1 (stereo not given) [CICLETANINE]	> 30 µM	> 30 µM	
Cc1cn([C@H]2O[C@@H](CO)[C@H](O)[C@H]2F)c(=O)[nH]c1=O [CLEVUDINE]	> 30 µM	> 30 µM	
N#Cc1ccc(Oc2ccc3c(c2)COB3O)cc1 [CRISABOROLE]	> 30 µM	13.7 µM	
CC(=O)O[C@]1(C(C)=O)CC[C@H]2[C@@H]3C=C(Cl)C4=CC(=O)[C@@H]5C[C@@H]5[C@]4(C)[C@H]3CC[C@@]21C [CYPROTERONE ACETATE]	> 30 µM		AC50 [3]: > 30 µM; AC50 [4]: > 10 µM; AC50 [5]: > 10 µM
CC(=O)[C@H]1CC[C@H]2[C@@H]3C=CC4=CC(=O)CC[C@@]4(C)[C@@H]3CC[C@]12C [DYDROGESTERONE]	> 30 µM	5.06 µM	
CC(=O)O[C@H]1Cc2ccccc2N(C(N)=O)c2ccccc21 [ESLICARBAZEPINE ACETATE]	> 30 µM	> 30 µM	
CC(O)(P(=O)(O)O)P(=O)(O)O [ETIDRONIC ACID]	> 30 µM		
Cc1ccc(S(=O)(=O)NC(=O)NC2CCCCC2)cc1 [GLYCYCLAMIDE]	> 30 µM	> 30 µM	
CN1CCCN(C(c2ccccc2)c2ccc(Cl)cc2)CC1 (stereo not given) [HOMOCHLORCYCLIZINE]	2.4 µM	0.12 µM	
CC(=O)OCC(=O)[C@@]1(O)CC[C@H]2[C@@H]3CCC4=CC(=O)CC[C@]4(C)[C@H]3[C@@H](O)C[C@@]21C [HYDROCORTISONE ACETATE]	> 30 µM	17.7 µM	

SMILES	AC50 [1]	AC50 [2]	further results
CC(COc1ccccc1)NC(C)C(O)c1ccc(O)cc1 (stereo not given) [ISOXSUPRINE]	9.44 µM	> 30 µM	
O=C(CCC/C=C\C[C@@H]1[C@@H](CC[C@@H](O)CCc2ccccc2)[C@H](O)C[C@@H]1O)OCCCCO[N+](=O)[O-] [LATANOPROSTENE BUNOD]	> 30 µM	> 10 µM	
Cc1oc(=O)oc1COC(=O)[C@@H]1N2C(=O)[C@@H](NC(=O)[C@H](N)c3ccccc3)[C@H]2SC1(C)C [LENAMPICILLIN]	> 30 µM	9.21 µM	
COc1ccc(OC)c(C(O)C(C)N)c1 (stereo not given) [METHOXAMINE]	> 30 µM	> 30 µM	
CC1(CCN2CCCCC2)C(=O)CCc2ccccc21 (stereo not given) [NEPINALONE]	> 30 µM	> 30 µM	
COC(=O)C[C@](O)(CCCC(C)(C)O)C(=O)O[C@@H]1C(OC)=C[C@]23CCCN2CCc2cc4c(cc2[C@H]13)OCO4 [OMACETAXINE MEPESUCCINATE]	> 30 µM	> 30 µM	
COc1cccc(C(=O)CCN[C@@H](C)[C@H](O)c2ccccc2)c1 [OXYFEDRINE]	16.4 µM	> 30 µM	
CC[N+](C)(CC)CCOC(=O)C(O)(c1ccccc1)C1CCCCC1 (stereo not given) [OXYPHENONIUM]	> 30 µM	0.003 µM	
C[C@@H]1C[C@H]2[C@@H]3C[C@H](F)C4=CC(=O)C=C[C@]4(C)[C@H]3[C@@H](O)C[C@]2(C)[C@@]1(O)C(=O)CO [PARAMETHASONE]	> 30 µM	> 30 µM	
CCC[C@H](N[C@@H](C)C(=O)N1[C@H](C(=O)O)C[C@@H]2CCCC[C@@H]21)C(=O)OCC [PERINDOPRIL]	> 30 µM	> 30 µM	
NNCCc1ccccc1 [PHENELZINE]	> 30 µM		
N[C@@H](Cc1ccccc1)C(=O)O [PHENYLALANINE]	> 30 µM	> 30 µM	
CCCn1cnc2c1c(=O)n(CCCCC(C)=O)c(=O)n2C [PROPENTOFYLLINE]	> 30 µM	> 30 µM	
COC(=O)[C@H]1[C@H]2C[C@@H]3c4[nH]c5cc(OC)ccc5c4CCN3C[C@H]2C[C@@H](OC(=O)c2cc(OC)c(OC)c(OC)c2)[C@@H]1OC [RESERPINE]	> 30 µM		AC50 [3]: > 30 µM; AC50 [4]: 8.83 µM; AC50 [6]: > 10 µM; AC50 [5]: 11.7 µM; AC50 [7]: > 10 µM
Clc1ccc(C(Cn2ccnc2)OCc2csc3c(Cl)cccc23)c(Cl)c1 (stereo not given) [SERTACONAZOLE]	5.39 µM	9.44 µM	
CC(OCCN1CCCCCC1)(c1ccccc1)c1ccc(Cl)cc1 (stereo not given) [SETASTINE]	6.96 µM	0.493 µM	
COc1cc(C)c2c(Oc3cccc(C(F)(F)F)c3)c(OC)cc(NC(C)CCCN)c2n1 (stereo not given) [TAFENOQUINE]	16.4 µM	> 3 µM	
O=S1(=O)CCN(CN2CCS(=O)(=O)NC2)CN1 [TAUROLIDINE]	> 30 µM		AC50 [3]: > 30 µM; AC50 [6]: > 30 µM; AC50 [5]: > 30 µM; AC50 [7]: > 30 µM; AC50 [8]: > 30 µM
CCCSc1nc(N[C@@H]2C[C@H]2c2ccc(F)c(F)c2)c2nnn([C@@H]3C[C@H](OCCO)[C@@H](O)[C@H]3O)c2n1 [TICAGRELOR]	14.9 µM	8.29 µM	
c1ccc2c(SC3=NCCN3)c[nH]c2c1 [TINAZOLINE]	> 30 µM	> 30 µM	
Cc1ccc(C(=O)C(C)CN2CCCCC2)cc1 (stereo not given) [TOLPERISONE]	> 30 µM		
COc1ccc2c(C(=S)N(C)CC(=O)O)cccc2c1C(F)(F)F [TOLRESTAT]	> 30 µM		

— ChEMBL document CHEMBL5291721, “A preclinical secondary pharmacology resource illuminates target-adverse drug reaction associations of marketed drugs” (Nat Commun, 2023)
